Source: patent US20160051541A1 (CHANRX CORPORATION, priority 2013, published 2016)
Where two headings read alike, the source gives them in different places. Values belong to the compound of their own block, whether it stands above or below them.

Key:
[1] = Example 2: daily doses of vanoxerine for 11 consecutive days in 12 subjects (PK, heart rate, blood pressure); type: in vivo, human; settings: for PK Data (Mean +/- SD) T1/2 / PK Data (Mean +/- SD) CMax: 11 consecutive days
[2] = Example 1: plasma concentrations of vanoxerine and metabolites after a 300 mg dose in patients; type: in vivo, human; settings: for concentration at 1 h / concentration at 3 h / concentration at 4 h / concentration at 6 h / concentration at 8 h / concentration at 12 h / concentration at 24 h / concentration at 0.5 h: human, plasma, 300 mg; for concentration at 0.5 h: .5 h
Description: Each patient gave blood samples before administration of their dose, and then again at nine further time points, 30 minutes after administration, 1, 2, 3, 4, 6, 8, 12, and 24 hours post administration.

[3] = cited from earlier work
[4] = Pharmacokinetic tests in dogs; type: in vivo; settings: dog, plasma; repetitive dosing in dogs
[5] = Preliminary studies of daily use over 7, 10 and 14 days; type: in vivo; settings: 75, 100, 125 and 150 mg a day over 7, 10 and 14 days
[6] = Recovery of radioactivity labeled vanoxerine in rats; type: in vivo
[7] = Example 4: vanoxerine daily for 7 days in four patients; type: in vivo, human; settings: 50, 100 and 150 mg daily, all patients
[8] = Example 3: vanoxerine daily for 14 days in fourteen healthy patients; type: in vivo, human
Description: A standardized meal was served 15 minutes prior to each dosing.

[9] = Further studies of half-life and steady state on oral dosing; type: in vivo; settings: in some cases
[10] = system: atrial fibrillation; settings: canines, cited from earlier work
[11] = 10 patients, 1.00 = below LLOQ, read-out: High concentration group average
[12] = 15 patients, 1.00 = below LLOQ, read-out: Low concentration group average

- concentration at 1 h [2, 11]: 115 ng/mL
- concentration at 3 h [2, 11]: 156 ng/mL
- concentration at 4 h [2, 11]: 96.1 ng/mL
- concentration at 6 h [2, 11]: 57.1 ng/mL
- concentration at 8 h [2, 11]: 43.2 ng/mL
- concentration at 12 h [2, 11]: 29.3 ng/mL
- concentration at 24 h ([2]; 10 patients, read-out: High concentration group average): 3.07 ng/mL
- concentration at 0.5 h [2, 11]: 37.7 ng/mL
- concentration at 1 h [2, 12]: 40.1 ng/mL
- concentration at 3 h [2, 12]: 31.4 ng/mL
- concentration at 4 h [2, 12]: 24.4 ng/mL
- concentration at 6 h [2, 12]: 16.7 ng/mL
- concentration at 8 h [2, 12]: 11.8 ng/mL
- concentration at 12 h [2, 12]: 6.31 ng/mL
- concentration at 24 h [2, 12]: 5.01 ng/mL
- concentration at 0.5 h [2, 12]: 17 ng/mL
- plasma levels, highest at any time point ([2]; low concentration group): ~40 ng/mL
- half-life [4]: ~66 h
- recovery of administered radioactivity [6]: incomplete
- steady-state levels achieved [7]: within one week
- steady state serum levels reported within ([8]; 25, 75 and 125 mg daily for 14 days): 9 to 11 days
- steady state achieved within ([9]; oral dosing): ≤ 3 days
- half-life ([9]; plasma, oral): ≤ 125 h
SMILES: Fc1ccc(C(OCCN2CCN(CCCc3ccccc3)CC2)c2ccc(F)cc2)cc1 [Vanoxerine, 1-[2-[bis(4-fluorophenyl)methoxy]ethyl]-4-(3-phenylpropyl)piperazine]
- plasma levels detectable ([1]; 25 mg daily): not detectable after 8 hours
- PK Data (Mean +/- SD) T1/2 ([1]; 50 mg daily, range 4.71-110.57): 49.39 +/− 26.18 hr (4.71-110.57)
- PK Data (Mean +/- SD) CMax ([1]; 75 mg daily): 27.4 ± 15.5 ng/mL
- PK Data (Mean +/- SD) T1/2 ([1]; 75 mg daily, range 10.26-116.67): 52.53 +/− 37.46 (10.26-116.67) hr
- PK Data (Mean +/- SD) CMax ([1]; 100 mg daily): 40.2 ± 26.6 ng/mL
- PK Data (Mean +/- SD) T1/2 ([1]; 100 mg daily, range 5.56-125.00): 15.38 +/− 43.55 (5.56-125.00) hr
- plasma levels detectable ([1]; 50, 75 and 100 mg doses): detectable at 24 hours
- steady state reached ([1]; 50, 75 and 100 mg doses daily): ≤ 8 days
- heart rate and systolic blood pressure ([1]; 75 and 100 mg doses daily): increased slightly in most subjects
- PK linearity ([1]; across 50, 75 and 100 mg doses): linear and the dose proportional
- half-life of the drug when daily doses are given ([1]; daily doses): increased half-life
- Tmax ([1]; human, plasma, printed under the 50 mg line, +- 0.5 hr (0.5-2.0)): 1.27 h
- side-effects ([3]; daily repetitive dose of 50 mg): no side-effects should be expected
- side-effects ([3]; higher doses): some effects were seen with regard to concentration difficulties, increase systolic blood pressure, asthenia, and a feeling of drug influence
- heart rate and systolic blood pressure [5]: increased heart rate and systolic blood pressure
- adverse events ([8]; 25, 75 and 125 mg daily for 14 days, standardized meal before dosing): No significant adverse events
- serum levels, dose proportionality ([8]; higher doses compared with lower doses): disproportionately and statistically greater levels at higher doses

SMILES: COc1ccccc1OCC(O)CN1CCN(CC(=O)Nc2c(C)cccc2C)CC1 (stereo not drawn) [ranolazine]
- anti-AF effect ([10]; clinically relevant conditions): suppress atrial fibrillation
- effects on ventricular myocardium [10]: minimal effects on ventricular myocardium
